Laboratory results reported in patent US20200316230A1, “DEVICES AND METHODS FOR RADIOPHARMACEUTICAL SYNTHESIS” (VANDERBILT UNIVERSITY, priority 2019, published 2020).

Assay: microPET imaging of rat brain with [^18F]fallypride produced in the microfluidic chip
Format: in vivo
Settings: microPET for about 2 hours, dose of about 300 μCi injected
Excerpt: To further verify the utility of the resulting [^18F]fallypride, we produced (using the integrated microfluidic chip) a dose of about 300 μCi with about 19.55 Ci/μmol (723.35 GBq/μmol) of specific activity and about 98.62% of radiochemical purity, and obtained PET data from a rat brain. The time point used to calculate the specific activity was at the end of production, namely the time when the purified [^18F]fallypride was retrieved from chip. The rat was brought to the imaging lab to habituate about 3 hours prior to imaging. Sbout 0.1 ml purified [^18F] fallypride was filtered through an about 0.45 μm filter (Millex-HV) and about 0.9 ml saline was added to formulate the PET probe used for rat injection. […] The accumulation and pharmacokinetics of [^18F]fallypride were as expected when evaluated in the rat brain.

## C=CCN1CCC[C@H]1CNC(=O)c1cc(CCC[18F])cc(OC)c1OC [[^18F]fallypride]
  accumulation and pharmacokinetics of [^18F]fallypride in the rat brain: as expected
